Key:
[1] = molecular target: T1, 20S Human Erythrocyte Proteasome (HEP) (Homo sapiens, UniProt P20618+P28074); test: Chymotrypsin-like activity of 20S Human Erythrocyte Proteasome (HEP), IC50 determination; format: biochemical; conditions: assay of Example C, inhibition of HEP
T1 construct: 20S Human Erythrocyte Proteasome (HEP), purchased from Immatics Biotechnologies Inc; purchased Immatics Biotechnologies Inc., Tübingen, Germany; host or cells: human erythrocytes (natural source)
Description: Assay for Chymotrypsin-like Activity of 20S Human Erythrocyte Proteasome (HEP)
Proteasome chymotrypsin-like activity of compounds of the invention was assayed according to the following procedure.
In 96-well microtiter plates, 20S Human Erythrocyte Proteasome (HEP), purchased from Immatics Biotechnologies Inc., Tübingen, Germany was plated at 0.2 μg/mL (about 0.6 nM catalytic sites) in 0.04% SDS 20 mM Tris buffer. A fluorimetric substrate Suc-LLVY-AMC (succinyl-Leu-Leu-Val-Tyr-7-amido-4-methylcoumarin), purchased from Sigma Inc., St. Louis, Mo., USA was added to a final concentration of 100 μM from a stock solution of 10 mM in dimethylsulfoxide. Reaction volumes were 100 μl per well. […] Proteasome activity was determined under conditions in which substrate hydrolysis increased linearly with time and the change in fluorescence signal was proportional to the concentration of free AMC.
Determination of IC50 Values for HEP and α-Chymotrypsin Inhibitors
(§1) Inhibition of the chymotrypsin-like activity of HEP and of bovine α-chymotrypsin was determined by incubating the enzyme with various concentrations of putative inhibitors for 15 minutes at 37° C. (or room temperature for α-chymotrypsin) prior to the addition of substrate. Each experimental condition was evaluated in triplicate, and replicate experiments were performed for the inhibitors described herein.

[2] = molecular target: T2, proteasome in Molt-4 cells (human leukemia) (Homo sapiens, UniProt P20618+P28074); format: cell-based; conditions: assay of Example E, inhibition of MOLT4; read-out: MOLT4 (EC50)
T2 sequence (P28074 60-263): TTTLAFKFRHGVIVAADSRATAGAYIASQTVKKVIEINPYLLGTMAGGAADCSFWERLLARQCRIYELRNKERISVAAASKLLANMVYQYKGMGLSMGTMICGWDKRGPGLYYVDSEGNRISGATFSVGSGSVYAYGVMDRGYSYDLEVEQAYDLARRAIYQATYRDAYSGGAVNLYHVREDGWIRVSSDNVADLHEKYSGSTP
T2 sequence (P20618 29-241): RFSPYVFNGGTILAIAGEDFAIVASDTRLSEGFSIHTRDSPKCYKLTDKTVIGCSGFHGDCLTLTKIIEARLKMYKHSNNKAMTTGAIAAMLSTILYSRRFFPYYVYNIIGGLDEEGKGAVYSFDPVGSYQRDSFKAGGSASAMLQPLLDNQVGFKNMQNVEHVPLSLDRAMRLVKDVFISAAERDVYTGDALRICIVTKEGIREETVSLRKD
Description: Cellular Assay for Chymotrypsin-like activity of Proteasome in Molt-4 Cell Line
The chymotrypsin-like activity of proteasome in Molt-4 cells (human leukemia) was assayed according to the following procedure. A brief description of the method was published previously (Harding et al., J. Immunol., 1995, 155, 1767).
Molt-4 cells were washed and resuspended in HEPES-buffered Saline (5.4 mM KCl, 120 mM NaCl, 25 mM Glucose, 1.5 mM MgSO4, 1 mM Na pyruvate, 20 mM Hepes) and plated in 96-well microtiter white plates to a final concentration of 6×10^6 cells/mL. Then various 5× proteasome inhibitor concentrations (or diluted DMSO for controls), prepared from 250×DMSO solutions by diluting 50-fold using HEPES-buffered saline, were added to the plate to a final 1× concentration. After 15 minutes incubation at 37° C., a fluorimetric cell permeable substrate (MeOSuc-FLF-AFC) (methoxysuccinyl-Phe-Leu-Phe-7-amido-4-trifluoromethylcoumarin) purchased from Enzyme Systems Products, catalogue number AFC-88, was added to each well at a final concentration of 25 μM from a stock solution of 20 mM in DMSO. Reaction volumes were 100 μl per well.
The concentration of free AFC was monitored every 1.5 min for 30 min ([…]) on a Polastar Optima, BMG Labtechnologies microplate reader, using an excitation wavelength of 390 nm and emission wavelength of 520 nm. Proteasome activity was determined under conditions in which substrate hydrolysis increased linearly with time and the change in fluorescent signal was proportional to the concentration of free AFC.
Determination of EC50 Values for Proteasome Inhibitors in MOLT-4 Cell Line
as §1, with “of” for “of the”, “proteasome in Molt-4 cells” for “HEP and of bovine α-chymotrypsin”, “cells” for “the enzyme”, “C.” for “C. (or room temperature for α-chymotrypsin)”

Row | Structure (SMILES) | IC50 [1] [nM] | EC50 [2] [nM]
1 | CC(C)C[C@H](NC(=O)[C@H](CCCNC(=N)N[N+](=O)[O-])NC(=O)c1cnccn1)B1O[C@@H]2C[C@@H]3C[C@@H](C3(C)C)[C@]2(C)O1 [D.1.2] | < 100 | 200 to 2000
2 | CC(C)C[C@H](NC(=O)[C@H](CCCNC(=N)N[N+](=O)[O-])NC(=O)CCN1C(=O)c2ccccc2C1=O)B1O[C@@H]2C[C@@H]3C[C@@H](C3(C)C)[C@]2(C)O1 [D.1.3, 3-(1,3-Dioxo-1,3-dihydro-isoindol-2-yl)-propanamide,N-[(1S)-1-[[[(1R)-1-[(3aS,4S,6S,7aR)-hexahydro-3a,5,5-trimethyl-4,6-methano-1,3,2-benzodioxaborol-2-yl]-3-methylbutyl]amino]carbonyl]-4-[[imino(nitroamino)methyl]amino]butyl]] | < 10 | 200 to 2000
3 | CCCCc1ccc(C(=O)N[C@@H](CCCNC(=N)N[N+](=O)[O-])C(=O)N[C@@H](CC(C)C)B2O[C@@H]3C[C@@H]4C[C@@H](C4(C)C)[C@]3(C)O2)cc1 [D.1.4, 4-Butylbenzamide,N-[(1S)-1-[[[(1R)-1-[(3aS,4S,6S,7aR)-hexahydro-3a,5,5-trimethyl-4,6-methano-1,3,2-benzodioxaborol-2-yl]-3-methylbutyl]amino]carbonyl]-4-[[imino(nitroamino)methyl]amino]butyl]] | < 10 | < 200
4 | CC(C)C[C@H](NC(=O)[C@H](CCCNC(=N)N[N+](=O)[O-])NC(=O)c1cccc(NC(=O)OC(C)(C)C)c1)B1O[C@@H]2C[C@@H]3C[C@@H](C3(C)C)[C@]2(C)O1 [D.1.5, 3-[(1,1-dimethylethoxy)carbonylamino]benzamide, N-[(1S)-1-[[[(1R)-1-[(3aS,4S,6S,7aR)-hexahydro-3a,5,5-trimethyl-4,6-methano-1,3,2-benzodioxaborol-2-yl]-3-methylbutyl]amino]carbonyl]-4-[[imino(nitroamino)methyl]amino]butyl]-] | < 10 | 200 to 2000
5 | COCCOCC(=O)N[C@@H](CCCNC(=N)N[N+](=O)[O-])C(=O)N[C@@H](CC(C)C)B1O[C@@H]2C[C@@H]3C[C@@H](C3(C)C)[C@]2(C)O1 [D.1.6] | < 100 | 200 to 2000
6 | COCCOCCOCC(=O)N[C@@H](CCCNC(=N)N[N+](=O)[O-])C(=O)N[C@@H](CC(C)C)B1O[C@@H]2C[C@@H]3C[C@@H](C3(C)C)[C@]2(C)O1 [D.1.7] | < 100 | 2000 to 10000
7 | CCOC(=O)/C=C/C(=O)N[C@@H](CCCNC(=N)N[N+](=O)[O-])C(=O)N[C@@H](CC(C)C)B1O[C@@H]2C[C@@H]3C[C@@H](C3(C)C)[C@]2(C)O1 [D.1.8, (E)-3-(Ethoxycarbonyl)acrylamide,N-[(1S)-1-[[[(1R)-1-[(3aS,4S,6S,7aR)-hexahydro-3a,5,5-trimethyl-4,6-methano-1,3,2-benzodioxaborol-2-yl]-3-methylbutyl]amino]carbonyl]-4-[[imino(nitroamino)methyl]amino]butyl]] | < 10 | 200 to 2000
8 | CC(C)C[C@H](NC(=O)[C@H](CCCNC(=N)N[N+](=O)[O-])NC(=O)CCCC1CCN(C)CC1)B1O[C@@H]2C[C@@H]3C[C@@H](C3(C)C)[C@]2(C)O1 [D.1.10, 4-(1-Methyl-piperidin-4-yl)-butanamide,N-[(1S)-1-[[[(1R)-1-[(3aS,4S,6S,7aR)-hexahydro-3a,5,5-trimethyl-4,6-methano-1,3,2-benzodioxaborol-2-yl]-3-methylbutyl]amino]carbonyl]-4-[[imino(nitroamino)methyl]amino]butyl]] | < 100 | 200 to 2000
9 | CC(=O)NCC(=O)N[C@@H](CCCNC(=N)N[N+](=O)[O-])C(=O)N[C@@H](CC(C)C)B1O[C@@H]2C[C@@H]3C[C@@H](C3(C)C)[C@]2(C)O1 [D.1.11, 2-Acetylamino-acetamide,N-[(1S)-1-[[[(1R)-1-[(3aS,4S,6S,7aR)-hexahydro-3a,5,5-trimethyl-4,6-methano-1,3,2-benzodioxaborol-2-yl]-3-methylbutyl]amino]carbonyl]-4-[[imino(nitroamino)methyl]amino]butyl]] | < 100 | > 10000
10 | CC(C)C[C@H](NC(=O)[C@H](CCCNC(=N)N[N+](=O)[O-])NC(=O)CCCCCNS(=O)(=O)c1ccccc1)B1O[C@@H]2C[C@@H]3C[C@@H](C3(C)C)[C@]2(C)O1 [D.1.12, 6-Benzenesulfonylaminohexanamide,N-[(1S)-1-[[[(1R)-1-[(3aS,4S,6S,7aR)-hexahydro-3a,5,5-trimethyl-4,6-methano-1,3,2-benzodioxaborol-2-yl]-3-methylbutyl]amino]carbonyl]-4-[[imino(nitroamino)methyl]amino]butyl]] | < 10 | 200 to 2000
11 | CCS(=O)(=O)NCCCCCCCC(=O)N[C@@H](CCCNC(=N)N[N+](=O)[O-])C(=O)N[C@@H](CC(C)C)B1O[C@@H]2C[C@@H]3C[C@@H](C3(C)C)[C@]2(C)O1 [D.1.13] | < 10 | 2000 to 10000
12 | CCS(=O)(=O)NCCCCCC(=O)N[C@@H](CCCNC(=N)N[N+](=O)[O-])C(=O)N[C@@H](CC(C)C)B1O[C@@H]2C[C@@H]3C[C@@H](C3(C)C)[C@]2(C)O1 [D.1.14, 6-(Ethanesulfonylamino)hexanamide,N-[(1S)-1-[[[(1R)-1-[(3aS,4S,6S,7aR)-hexahydro-3a,5,5-trimethyl-4,6-methano-1,3,2-benzodioxaborol-2-yl]-3-methylbutyl]amino]carbonyl]-4-[[imino(nitroamino)methyl]amino]butyl]] | < 100 | > 10000
13 | CC(C)C[C@H](NC(=O)[C@H](CCCNC(=N)N[N+](=O)[O-])NC(=O)CCCCCCCCCN1C(=O)c2ccccc2C1=O)B1O[C@@H]2C[C@@H]3C[C@@H](C3(C)C)[C@]2(C)O1 [D.2, 10-(1,3-Dioxo-1,3-dihydro-isoindol-2-yl)-decanamide, N-[(1S)-1-[[[(1R)-1-[(3aS,4S,6S,7aR)-hexahydro-3a,5,5-trimethyl-4,6-methano-1,3,2-benzodioxaborol-2-yl]-3-methylbutyl]amino]carbonyl]-4-[[imino(nitroamino)methyl]amino]butyl]-;] | < 10 | < 200
14 | COC(=O)CCCC(=O)N[C@@H](CCCNC(=N)N[N+](=O)[O-])C(=O)N[C@@H](CC(C)C)B1O[C@@H]2C[C@@H]3C[C@@H](C3(C)C)[C@]2(C)O1 [D.2.1, 4-(methoxycarbonyl)butanamide,N-[(1S)-1-[[[(1R)-1-[(3aS,4S,6S,7aR)-hexahydro-3a,5,5-trimethyl-4,6-methano-1,3,2-benzodioxaborol-2-yl]-3-methylbutyl]amino]carbonyl]-4-[[imino(nitroamino)methyl]amino]butyl]] | < 10 | 200 to 2000
15 | CCCCN1CCC(CCCC(=O)N[C@@H](CCCNC(=N)N[N+](=O)[O-])C(=O)N[C@@H](CC(C)C)B2O[C@@H]3C[C@@H]4C[C@@H](C4(C)C)[C@]3(C)O2)CC1 [D.2.2, 4-(1-Butyl-piperidin-4-yl)-butanamide,N-[(1S)-1-[[[(1R)-1-[(3aS,4S,6S,7aR)-hexahydro-3a,5,5-trimethyl-4,6-methano-1,3,2-benzodioxaborol-2-yl]-3-methylbutyl]amino]carbonyl]-4-[[imino(nitroamino)methyl]amino]butyl]] | < 10 | > 10000

— patent US8546608B2, “Proteasome inhibitors and methods of using the same” (Cephalon, Inc., priority 2003, dated 2013)
